The test system of one experiment is SMN2 (ISS-N1 intron 7). As to the kind of experiment: FL-SMN2 expression relative to Δ7 SMN2 transcripts by RT-qPCR in tissues of severe SMA mice. The class given is in vivo, mouse. As to conditions: both doses (40 and 80 mg/kg s.c. at PD0), tissues at PD7, peripheral and CNS tissues, RT-qPCR ΔΔCt. The procedure: To evaluate the change of FL-SMN2 expression relative to Δ7 SMN2 transcripts, we used real-time quantitative PCR (RT-qPCR) at PD7; the mice were treated with DG9-PMO at PD0. In both doses, DG9-PMO treatment led to a 4- to 30-fold higher FL-SMN2 expression than NT control in both peripheral and CNS tissues (Figure 2A and Supplemental Figure 3A). It also led to a ~5-fold increase in FL-SMN2 expression when compared with unconjugated PMO, MOE, and R6G-PMO treatments in the majority of the tissues (Figure 2A, Supplemental Figure 3A, and Supplemental Figure 1F). […] SMN levels were higher in CNS tissues in the DG9-PMO–treated than MOE-treated mice, though no statistical significance was seen. […] SMN levels were similar in DG9-PMO and MOE in the tissues collected from mice at PD30.
Injections were carried out using a 30-gauge Hamilton syringe. SMA mice identified following genotyping were randomly assigned to a treatment group. […]
Frozen tissues harvested at PD7 were sectioned using a cryostat (Leica CM 1950) into 20 μm sections. […] The relative gene expression for FL-SMN2 over the deletion of SMN2 transcripts without exon 7 was normalized to the NT control samples and analyzed using the ΔΔCt method. The expression of denervation markers relative to 18S was normalized to the healthy heterozygous control samples collected at PD30 and analyzed using the ΔΔCt method.

The next experiment deals with severe SMA mouse model. As to the kind of experiment: Body weight of SMA mice at PD7. The class given is in vivo. The method, then:
Injections were carried out using a 30-gauge Hamilton syringe. SMA mice identified following genotyping were randomly assigned to a treatment group. The researcher injecting mice was blinded to the treatment. SMA neonates were subcutaneously injected with 40 or 80 mg/kg of AOs at PD0, while NT and heterozygous control mice were injected with saline (n = 10–49) per group. Tissues including the quadriceps muscle, liver, kidney, spleen, diaphragm, intercostal muscle, heart, brain, and spinal cord were collected and snap-frozen in dry ice– cooled isopentane, then subsequently stored at –80°C.

As for `CC(=O)N[C@@H](Cc1ccc(O)cc1)C(=O)N[C@@H](C)C(=O)N[C@H](CCCNC(=N)N)C(=O)N[C@H](C(=O)N[C@@H](CCCNC(=N)N)C(=O)N[C@@H](CCCNC(=N)N)C(=O)N[C@H](CCCNC(=N)N)C(=O)NCC(=O)N1CCC[C@H]1C(=O)N[C@@H](CCCNC(=N)N)C(=O)NCC(=O)N[C@@H](Cc1ccc(O)cc1)C(=O)N[C@@H](C)C(=O)N[C@H](CCCNC(=N)N)C(=O)N[C@H](C(=O)N[C@@H](CCCNC(=N)N)C(=O)N[C@@H](CCCNC(=N)N)C(=O)N[C@H](CCCNC(=N)N)C(=O)NCC(=O)N1CCC[C@H]1C(=O)N[C@@H](CCCNC(=N)N)C(=O)N[C@H](CCCNC(=N)N)C(=O)N1C[C@@H](COP(=O)(N(C)C)N2C[C@@H](COP(=O)(N(C)C)N3C[C@@H](COP(=O)(N(C)C)N4C[C@@H](COP(=O)(N(C)C)N5C[C@@H](COP(=O)(N(C)C)N6C[C@@H](COP(=O)(N(C)C)N7C[C@@H](COP(=O)(N(C)C)N8C[C@@H](COP(=O)(N(C)C)N9C[C@@H](COP(=O)(N(C)C)N%10C[C@@H](COP(=O)(N(C)C)N%11C[C@@H](COP(=O)(N(C)C)N%12C[C@@H](COP(=O)(N(C)C)N%13C[C@@H](COP(=O)(N(C)C)N%14C[C@@H](COP(=O)(N(C)C)N%15C[C@@H](COP(=O)(N(C)C)N%16C[C@@H](COP(=O)(N(C)C)N%17C[C@@H](COP(=O)(N(C)C)N%18C[C@@H](COP(=O)(N(C)C)N%19CCC(C(N)=O)CC%19)O[C@@H](n%19cc(C)c(=O)[nH]c%19=O)C%18)O[C@@H](n%18ccc(N)nc%18=O)C%17)O[C@@H](n%17cnc%18c(N)ncnc%18%17)C%16)O[C@@H](n%16ccc(N)nc%16=O)C%15)O[C@@H](n%15cc(C)c(=O)[nH]c%15=O)C%14)O[C@@H](n%14cc(C)c(=O)[nH]c%14=O)C%13)O[C@@H](n%13cc(C)c(=O)[nH]c%13=O)C%12)O[C@@H](n%12ccc(N)nc%12=O)C%11)O[C@@H](n%11cnc%12c(N)ncnc%12%11)C%10)O[C@@H](n%10cc(C)c(=O)[nH]c%10=O)C9)O[C@@H](n9cnc%10c(N)ncnc%109)C8)O[C@@H](n8cnc9c(N)ncnc98)C7)O[C@@H](n7cc(C)c(=O)[nH]c7=O)C6)O[C@@H](n6cnc7c(=O)[nH]c(N)nc76)C5)O[C@@H](n5ccc(N)nc5=O)C4)O[C@@H](n4cc(C)c(=O)[nH]c4=O)C3)O[C@@H](n3cnc4c(=O)[nH]c(N)nc43)C2)O[C@@H](n2cnc3c(=O)[nH]c(N)nc32)C1)C(C)C)C(C)C` (stereo partly drawn) [DG9-PMO], in the experiment on SMN2 (ISS-N1 intron 7), the “FL-SMN2 expression (relative to Δ7 SMN2), fold higher than NT control” value is recorded as 4- to 30 fold. In addition, the “body weight at PD7 versus R6G-PMO” value in the experiment with severe SMA mouse model (40 mg/kg s.c. at PD0) was “weighed significantly more than R6G-PMO–treated neonates”. Moreover, in the experiment with severe SMA mouse model (both doses (40 and 80 mg/kg) s.c. at PD0), the “body weight at PD7” value is “significantly heavier than the NT and unconjugated PMO–treated littermates”.

These data come from PMC10077475, “DG9-conjugated morpholino rescues phenotype in SMA mice by reaching the CNS via a subcutaneous administration” (JCI Insight, 2023).
